Measured values: US12285440B2, “APOE4 impairs myelination via altered cholesterol biosynthesis and transport in oligodendroglia” (Massachusetts Institute of Technology, priority 2021, dated 2025)

Tests used:
Format in all cases: cell-based, human
APOE4 iMGLs [1] = details: 1 μM, 16 hours, vs DMSO-treated control cells
APOE4 iMGLs [2] = experiment: Purinergic signaling in TrC-treated APOE4 iMGLs; details: 1 μM, 16 hours
APOE4 iMGLs [3] = experiment: Cholesterol in media of APOE4 iMGLs via ELISA; details: 16 hours treatment, drug washed off, media conditioned 24 hours; vs DMSO-treated controls
Experimental: Having induced lipid formation in APOE3 iMGLs, we next attempted to deplete APOE4 iMGLs of lipid droplets to test whether this would alleviate APOE4 phenotypes. We turned to the ACSL1 inhibitor Triacsin C (TrC). […] Since TrC has also been reported to inhibit cholesterol biosynthesis and increase microglial phagocytosis, we decided to test if the extracellular accumulation of cholesterol in APOE4 iMGLs could be reduced by TrC treatment. After 16 hours, DMSO-treated controls or TrC-treated APOE4 iMGLs were washed off the drug treatment and allowed to condition the media for an additional 24 hours. […] We reasoned that a decrease in extracellular cholesterol accumulation in APOE4 iMGLs cultures treated with TrC was likely to also relieve the suppression of neuronal activity under APOE4 iMGL conditioned media. NGN2-induced neurons from APOE3 or APOE4 iPS lines were seeded onto MEAs and allowed to mature for 3 weeks before being recorded 24 hours after exposure to conditioned media from APOE3 iMGLs, APOE4 iMGLs, or APOE4 iMGL treated with TrC. […]
[…] Measurements were made using an EnSpire plate reader (Perkin Elmer). APOE levels were similarly processed and quantified from iMGL conditioned media using Apolipoprotein E Human ELISA kit (Invitrogen; #EHAPOE).

NGN2-induced neurons = experiment: MEA recording of NGN2-induced neurons exposed to iMGL conditioned media; details: 24 hours after exposure to conditioned media from APOE4 iMGL pre-treated with TrC
Experimental: Having induced lipid formation in APOE3 iMGLs, we next attempted to deplete APOE4 iMGLs of lipid droplets to test whether this would alleviate APOE4 phenotypes. We turned to the ACSL1 inhibitor Triacsin C (TrC). […] Since TrC has also been reported to inhibit cholesterol biosynthesis and increase microglial phagocytosis, we decided to test if the extracellular accumulation of cholesterol in APOE4 iMGLs could be reduced by TrC treatment. After 16 hours, DMSO-treated controls or TrC-treated APOE4 iMGLs were washed off the drug treatment and allowed to condition the media for an additional 24 hours. […] NGN2-induced neurons from APOE3 or APOE4 iPS lines were seeded onto MEAs and allowed to mature for 3 weeks before being recorded 24 hours after exposure to conditioned media from APOE3 iMGLs, APOE4 iMGLs, or APOE4 iMGL treated with TrC. […]
Dissociated spheroids or NGN2-induced neurons were plated as a 10 μl droplet in Poly-D-Lysine (Sigma-Aldrich) coated wells of a CytoView MEA 48-well plate (Axion BioSystems; M768-tMEA-48B). […] Spontaneous neural activity was recorded for 30 minutes at a sampling rate of 12.5 kHz and an adaptive threshold set at 5.5 times the standard deviation of baseline noise was used for spike detection. Bursts were detected at each electrode using an inter-spike interval (ISI) threshold set to at least 5 spikes with a maximum ISI of 100 ms. […]

CCC/C=C/C/C=C/C=C/C=N/NN=O [TrC, Triacsin C]
BODIPY-positive lipid droplets (APOE4 iMGLs [1]): dramatically reduce BODIPY-positive lipid droplets relative to DMSO-treated control cells | purinergic signaling (APOE4 iMGLs [2]): purinergic signaling was restored after lipid droplet depletion | levels of accumulated cholesterol in the media (APOE4 iMGLs [3]): significant decrease in the levels of accumulated cholesterol in the media | neuronal bursts / neural activity on MEA (NGN2-induced neurons): increased neural activity to the level of neurons treated with APOE3 iMGL media
